Where two headings read alike, the source gives them in different places.
How the values were obtained:
LoVo (colon) = assay: Anti-cell proliferation in tumor cells (14C-thymidine incorporation), LoVo; assay type: cell-based; conditions: Homo sapiens, read-out: IC50 on cell proliferation, LoVo
Description: (§1) The effect of compounds of the invention on cell proliferation in various tumor cells was tested based on incorporation of ^14C-thymidine into DNA of cells.
(§2) Similar to those described above in 3a, except that different cells, cell growth medium, and growth supplements were used. Human tumor cell lines derived from various human tissue origins (LoVo from colon, H460 from lung, T47D from breast, PC3 from prostate, A375 from melanoma, AsPC1 from pancreas) were obtained from the American Type Culture Collection (ATCC) and cultured under specified conditions required for each cell type, as provided by ATCC. Complete medium was obtained from Cellgro: Iscove's medium with 10% Fetal Bovine Serium (FBS) (Mediatech, Inc., Herndon, Va. 20171, Cat. No. 10-016-CV).
(§3) Tumor cells were seeded at approx. 3000–8000 cells per well in a volume of 100 μl of complete medium. Cells were grown for 24 hours in complete medium, and 1 μl of test compound was serially diluted in 100% DMSO and added to each well. For maximum growth control wells, only 1 μl of 100% DMSO was added. After 24 hours incubation, 20 μl of ^14C-thymidine master mix was added to each well and the ^14C-thymidine master mix was pepared according to the following regimen:
(§4) Cells were incubated for an additional 24 hours at 37° C. in medium containing test compound and ^14C-thymidine. Then, the reaction mixture was discarded and the plate was washed 2 times each with 200 μl PBS. Subsequently, each well on the plate was filled with 200 μl of PBS. The top of the plate was sealed with transparent plate sealer and white plate backing sealers were applied to the bottom of plates. The retained ^14C inside each well was measured using a Packard TopCount.
(§5) In order to test the potency of inhibition of the present compound, IC50 of an individual compound on the inhibition of tumor cell line proliferation was measured using the above procedure. As used herein, said IC50 refers to the concentration of the test compound at which the amount of tumor cell proliferation is reduced by one-half as compared to the maximum growth control wells without the compound.

c-Abl kinase = c-Abl kinase (Abelson murine leukemia virus, UniProt P00521); assay: Inhibition of c-Abl kinase activity (cell-free, Abl peptide substrate, 33P Flashplate); assay type: biochemical; conditions: IC50 for the c-Abl kinase activity
H460 (lung) = assay: Anti-cell proliferation in tumor cells (14C-thymidine incorporation), H460; assay type: cell-based
Description: as §1, §2, §3, §4, §5

[1] = Homo sapiens, NCI-H460; read-out: IC50 on cell proliferation, H460

Sequence of c-Abl kinase (P00521 115-385): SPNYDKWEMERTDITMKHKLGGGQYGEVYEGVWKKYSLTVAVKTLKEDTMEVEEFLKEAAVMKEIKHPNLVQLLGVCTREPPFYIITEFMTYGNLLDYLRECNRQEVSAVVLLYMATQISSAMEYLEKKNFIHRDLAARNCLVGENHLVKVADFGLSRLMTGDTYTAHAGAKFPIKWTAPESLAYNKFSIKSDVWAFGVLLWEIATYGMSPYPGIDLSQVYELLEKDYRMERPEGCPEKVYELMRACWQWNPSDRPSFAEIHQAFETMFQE

Structure (SMILES)	IC50 (LoVo (colon))	IC50 (c-Abl kinase)	IC50 (H460 (lung); [1])	IC50 (H460 (lung); Homo sapiens, NCI-H460, read-out: IC50 on cell proliferation, H460)
COC(=O)c1cccc(Nc2[nH]nc3c2Cc2cc(OC)c(OC)cc2-3)c1 [Compound 11, 3-(6,7-Dimethoxy-2,4-dihydro-indeno[1,2-c]pyrazol-3-ylamino)-benzoic acid methyl ester]	2 nM	118 nM	33 nM	–
COc1cc2c(cc1OC)-c1n[nH]c(Nc3ccccc3F)c1C2 [Compound 12, (6,7-Dimethoxy-2,4-dihydro-indeno[1,2-c]pyrazol-3-yl)-(2-fluoro-phenyl)-amine]	11 nM	20 nM	3 nM	–
COc1cc2c(cc1OC)-c1n[nH]c(Nc3cccc(F)c3)c1C2 [Compound 14, (3-Fluoro-phenyl)-(6,7-dimethoxy-2,4-dihydro-indeno[1,2-c]pyrazol-3-yl)-amine]	11 nM	–	–	10 nM
Cc1ccc2c(c1)-c1n[nH]c(Nc3ccccc3)c1C2 [Compound 22, (7-Methyl-2,4-dihydro-indeno[1,2-c]pyrazol-3-yl)-phenyl-amine]	13400 nM	19 nM	9270 nM	–
COc1cc2c(cc1OC)-c1n[nH]c(Nc3cccnc3)c1C2 [Compound 30, (6,7-Dimethoxy-2,4-dihydro-indeno[1,2-c]pyrazol-3-yl)-pyridin-3-yl-amine]	423 nM	491 nM	290 nM	–
COc1ccc2c(c1)-c1n[nH]c(Nc3ccccc3)c1C2 [Compound 39, (7-Methoxy-2,4-dihydro-indeno[1,2-c]pyrazol-3-yl)-phenyl-amine]	–	13 nM	–	–
COc1cc2c(cc1OC)-c1n[nH]c(NCc3ccccc3)c1C2 [Compound 63, Benzyl-(6,7-dimethoxy-2,4-dihydro-indeno[1,2-c]pyrazol-3-yl)-amine]	2400 nM	419 nM	3670 nM	–
COc1cccc(Nc2[nH]nc3c2Cc2cc4c(cc2-3)OCO4)c1 [Compound 97, (2,9-Dihydro-5,7-dioxa-2,3-diaza-cyclopenta[a]-s-indacen-1-yl)-(3-methoxy-phenyl)-amine]	225 nM	227 nM	424 nM	–
CN1CCN(c2ccc3c(c2)Cc2c-3n[nH]c2Nc2cccc(Br)c2)CC1 [Compound 122, (3-Bromo-phenyl)-[6-(4-methyl-piperazin-1-yl)-2,4-dihydro-indeno[1,2-c]pyrazol-3-yl]-amine]	3840 nM	1260 nM	14300 nM	–
COC(=O)c1cccc(Nc2[nH]nc3c2Cc2cc(OCCCN4CCCC4)c(OC)cc2-3)c1 [Compound 157, 3-[7-Methoxy-6-(3-pyrrolidin-1-yl-propoxy)-2,4-dihydro-indeno[1,2-c]pyrazol-3-ylamino]-benzoic acid methyl ester]	2140 nM	371 nM	3590 nM	–
COc1cc2c(cc1OC)-c1n[nH]c(NCc3cc(Cl)ccc3Cl)c1C2 [Compound 330, (2,5-Dichloro-benzyl)-(6,7-dimethoxy-2,4-dihydro-indeno[1,2-c]pyrazol-3-yl)-amine]	3700 nM	91 nM	1200 nM	–
COc1cc2c(cc1OC)-c1c(c(Nc3cccc(F)c3)nn1C(=O)CO)C2 [Compound 432, 1-[3-(3-Fluoro-phenylamino)-6,7-dimethoxy-4H-indeno[1,2-c]pyrazol-1-yl]-2-hydroxy-ethanone]	35 nM	96 nM	–	–
